How the values were obtained:
[1] = target: T1, CDK6/Cyclin D3 (Homo sapiens, UniProt Q00534); experiment: In vitro CDK-6 inhibitory activity (ADP-Glo kinase assay); format: biochemical; conditions: mean ± SD
T1 construct: purchased Promega V4489
Procedure: Data were analyzed using one-way analysis of variance (ANOVA) for multiple comparison between all compounds followed by Tukey–Kramer post-ANOVA test. The differences were considered statistically significant at p < 0.05.

[2] = target: T2, VEGFR-2 (KDR) (Homo sapiens, UniProt P35968); experiment: In vitro VEGFR-2 inhibitory activity (Kinase-Glo MAX kinase assay); format: biochemical; conditions: mean ± SD
T2 construct: purchased #40325
T2 sequence (P35968 20-1356): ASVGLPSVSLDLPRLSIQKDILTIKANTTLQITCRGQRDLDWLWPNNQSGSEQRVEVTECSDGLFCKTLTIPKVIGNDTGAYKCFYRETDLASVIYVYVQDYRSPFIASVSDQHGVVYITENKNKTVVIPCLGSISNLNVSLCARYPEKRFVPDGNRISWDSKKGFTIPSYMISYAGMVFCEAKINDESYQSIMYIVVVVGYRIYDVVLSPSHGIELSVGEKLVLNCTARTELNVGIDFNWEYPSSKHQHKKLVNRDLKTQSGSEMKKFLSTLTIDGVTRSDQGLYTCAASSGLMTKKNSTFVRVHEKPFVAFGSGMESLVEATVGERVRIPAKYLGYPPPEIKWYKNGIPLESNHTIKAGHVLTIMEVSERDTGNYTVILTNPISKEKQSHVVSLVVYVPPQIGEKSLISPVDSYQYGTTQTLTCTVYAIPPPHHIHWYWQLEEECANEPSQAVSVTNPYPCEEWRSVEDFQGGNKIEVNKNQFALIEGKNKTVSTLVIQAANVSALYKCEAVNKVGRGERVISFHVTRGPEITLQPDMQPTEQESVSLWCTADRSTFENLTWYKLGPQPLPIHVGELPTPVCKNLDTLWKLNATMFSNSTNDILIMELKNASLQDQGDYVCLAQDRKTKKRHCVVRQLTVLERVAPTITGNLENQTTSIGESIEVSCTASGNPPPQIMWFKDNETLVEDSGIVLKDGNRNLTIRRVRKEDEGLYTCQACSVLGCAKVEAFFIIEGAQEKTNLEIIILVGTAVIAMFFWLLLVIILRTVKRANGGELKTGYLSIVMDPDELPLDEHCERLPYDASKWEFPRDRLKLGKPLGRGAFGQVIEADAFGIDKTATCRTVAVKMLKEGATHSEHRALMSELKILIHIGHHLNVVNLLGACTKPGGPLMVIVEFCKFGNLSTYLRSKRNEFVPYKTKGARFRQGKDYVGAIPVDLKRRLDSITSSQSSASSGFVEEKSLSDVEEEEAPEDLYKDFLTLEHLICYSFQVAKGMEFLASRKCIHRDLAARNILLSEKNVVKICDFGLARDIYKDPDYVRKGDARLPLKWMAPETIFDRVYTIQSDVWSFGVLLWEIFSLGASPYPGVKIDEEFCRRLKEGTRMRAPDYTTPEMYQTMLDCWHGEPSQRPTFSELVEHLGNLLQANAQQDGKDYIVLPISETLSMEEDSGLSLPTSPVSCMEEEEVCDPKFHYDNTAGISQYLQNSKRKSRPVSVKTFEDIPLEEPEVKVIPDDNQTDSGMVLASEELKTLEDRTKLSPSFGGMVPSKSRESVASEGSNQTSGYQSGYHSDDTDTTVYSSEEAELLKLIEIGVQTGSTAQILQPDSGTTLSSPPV
Description: (§1) The Assay Kits are designed to measure CDK2/CyclinA2 and VEGFR-2 (KDR) activities for screening and profiling applications, using Kinase-Glo® MAX as a detection reagent. The CDK-2 Assay Kit comes in a convenient 96-well format, with enough purified recombinant CDK2/CyclinA2 enzyme, CDK substrate peptide, ATP, and kinase assay buffer for 100 enzyme reactions, while the VEGFR-2 Assay Kit comes in a convenient 96-well format, with enough purified recombinant VEGFR-2 (KDR) enzyme, PTK substrate, ATP, and kinase assay buffer for 100 enzyme reactions. […] The CDK2/CyclinA2 and VEGFR-2 (KDR) activities at a single dose concentration of 10µM were performed, where the Kinase-Glo MAX luminescence kinase assay kit (Promega#V6071) was used. The compounds were diluted in 10% DMSO and 5 µL of the dilution was added to a 50 µL reaction so that the final concentration of DMSO was 1% in all of the reactions. All of the enzymatic reactions were conducted at 30 °C for 45 min. […] After the enzymatic reactions, 50 µL of Kinase-Glo® MAX Luminescence kinase assay solution was added to each reaction and the plates were incubated for 15 min at room temperature. Luminescence signal was measured using a Bio Tek Synergy 2 microplate reader.
(§2) Data were analyzed using one-way analysis of variance (ANOVA) for multiple comparison between all compounds followed by Tukey–Kramer post-ANOVA test. […]

[3] = target: T3, CDK2/CyclinA2 (Homo sapiens, UniProt P24941); experiment: In vitro CDK-2 inhibitory activity (Kinase-Glo MAX kinase assay); format: biochemical; conditions: mean ± SD
T3 construct: purchased #79599
Description: as §1, §2

[4] = tested on: topoisomerase-1; conditions: cited from earlier work

T1 sequence (Q00534 whole entry): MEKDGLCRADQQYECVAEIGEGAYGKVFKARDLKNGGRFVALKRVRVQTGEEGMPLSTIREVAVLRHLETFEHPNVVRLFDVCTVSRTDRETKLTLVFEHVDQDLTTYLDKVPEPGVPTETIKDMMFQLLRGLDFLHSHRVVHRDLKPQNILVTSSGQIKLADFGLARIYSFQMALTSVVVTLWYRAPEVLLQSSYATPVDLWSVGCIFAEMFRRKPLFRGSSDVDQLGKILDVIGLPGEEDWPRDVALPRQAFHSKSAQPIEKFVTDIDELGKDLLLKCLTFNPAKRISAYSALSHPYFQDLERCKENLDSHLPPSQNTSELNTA
T1 sequence (P30281 whole entry partner): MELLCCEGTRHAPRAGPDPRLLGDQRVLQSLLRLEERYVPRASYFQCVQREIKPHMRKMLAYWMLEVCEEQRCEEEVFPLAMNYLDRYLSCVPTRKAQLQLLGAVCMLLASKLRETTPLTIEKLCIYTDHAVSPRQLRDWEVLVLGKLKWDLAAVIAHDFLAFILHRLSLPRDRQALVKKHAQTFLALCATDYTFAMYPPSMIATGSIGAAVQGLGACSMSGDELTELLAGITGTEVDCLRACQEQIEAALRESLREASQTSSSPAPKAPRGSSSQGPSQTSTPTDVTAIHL

O=c1c(OC2OCC(O)C(O)C2O)c(-c2ccc(O)c(O)c2)oc2cc(O)cc(O)c12 (stereo not drawn) [Compound 10, quercetin 3-O-β-xyloside]
IC50 [1]: 355 nM | IC50 [2]: 193 nM

C[C@H]1[C@H](C)CC[C@]2(C(=O)O)CC[C@]3(C)C(=CC[C@@H]4[C@@]5(C)C[C@@H](O)[C@H](O)C(C)(C)[C@@H]5CC[C@]43C)[C@H]12 [Compound 3, corosolic acid]
IC50 [3]: 239 nM

O=c1cc(-c2ccc(O)c(O)c2)oc2cc(OC3O[C@@H](CO)[C@H](O)[C@@H](O)[C@@H]3O)cc(O)c12 (stereo partly drawn) [Compound 16, luteolin-7-O-β-glucoside]
inhibitory activity against topoisomerase-1 [4]: especially poisonous

CC[C@H](CC[C@@H](C)[C@H]1CC[C@H]2[C@@H]3CC=C4C[C@@H](O)CC[C@]4(C)[C@H]3CC[C@]12C)C(C)C [Compound 1, β-sitosterol]
IC50 [3]: 581 nM

Source: publication PMC9002841, “Characterization of Promising Cytotoxic Metabolites from Tabebuia guayacan Hemsl.: Computational Prediction and In Vitro Testing” (Plants, 2022)
